Source: paper PMC4674339 (European journal of medicinal chemistry, 2015)
“Also recorded” adds a separate entry of the source. Where two headings read alike, the source gives them in different places.

Legend:
[1] = biological target: human platelet P2Y1 receptors (Homo sapiens, UniProt P47900); settings: 3 μM ADP; human whole blood; N=3 unless stated
[2] = tested on: ADP induced human platelet aggregation; assay: ADP-induced human platelet aggregation, 96-well microplate method; type: cell-based
[3] = biological target: T1, platelet P2X1 receptors (Homo sapiens, UniProt P51575); assay: P2X1-mediated entry of extracellular Ca2+; type: cell-based
T1 sequence (P51575 1-399): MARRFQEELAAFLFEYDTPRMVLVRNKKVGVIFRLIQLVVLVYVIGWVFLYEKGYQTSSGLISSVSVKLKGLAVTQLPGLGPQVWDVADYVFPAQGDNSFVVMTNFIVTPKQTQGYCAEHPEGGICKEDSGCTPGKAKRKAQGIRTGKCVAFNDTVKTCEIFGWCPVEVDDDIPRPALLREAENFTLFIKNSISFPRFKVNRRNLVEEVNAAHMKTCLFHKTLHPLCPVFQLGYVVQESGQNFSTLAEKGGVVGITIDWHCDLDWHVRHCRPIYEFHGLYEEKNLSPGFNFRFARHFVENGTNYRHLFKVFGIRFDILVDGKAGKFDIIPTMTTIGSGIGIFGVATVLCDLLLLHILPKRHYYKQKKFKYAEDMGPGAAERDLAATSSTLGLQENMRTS

[4] = tested on: ADP induced human platelet aggregation; assay: ADP induced human platelet aggregation by optical aggregometry; type: cell-based; settings: 25 and 100 nM; pre-incubation 0, 5, 15 min; data not shown
[5] = tested on: GPIIb-IIIa and P-selectin on the surface of human platelets; assay: Reversibility of inhibition of activation marker expression after dilution; type: cell-based; settings: 30 min with 10 nM, then 100x dilution with platelet poor plasma; 20 μM ADP
[6] = biological target: human P2Y2 receptors (Homo sapiens, UniProt P41231); assay: Effect on human P2Y2 receptors; settings: data not shown
Chain of human P2Y2 receptors (P41231 whole entry): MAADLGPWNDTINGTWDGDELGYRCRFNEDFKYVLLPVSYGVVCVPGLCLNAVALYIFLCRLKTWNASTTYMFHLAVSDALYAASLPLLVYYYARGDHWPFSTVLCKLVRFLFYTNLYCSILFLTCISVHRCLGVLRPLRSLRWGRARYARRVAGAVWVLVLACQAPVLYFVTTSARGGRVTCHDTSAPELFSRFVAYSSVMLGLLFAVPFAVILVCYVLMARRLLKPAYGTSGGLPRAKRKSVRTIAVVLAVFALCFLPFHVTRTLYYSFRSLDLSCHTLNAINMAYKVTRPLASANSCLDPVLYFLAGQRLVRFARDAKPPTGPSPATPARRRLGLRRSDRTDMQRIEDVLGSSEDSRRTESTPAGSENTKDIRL

[7] = biological target: human P2Y4 receptors (Homo sapiens, UniProt P51582); assay: Effect on human P2Y4 receptors; settings: data not shown
Chain of human P2Y4 receptors (P51582 whole entry): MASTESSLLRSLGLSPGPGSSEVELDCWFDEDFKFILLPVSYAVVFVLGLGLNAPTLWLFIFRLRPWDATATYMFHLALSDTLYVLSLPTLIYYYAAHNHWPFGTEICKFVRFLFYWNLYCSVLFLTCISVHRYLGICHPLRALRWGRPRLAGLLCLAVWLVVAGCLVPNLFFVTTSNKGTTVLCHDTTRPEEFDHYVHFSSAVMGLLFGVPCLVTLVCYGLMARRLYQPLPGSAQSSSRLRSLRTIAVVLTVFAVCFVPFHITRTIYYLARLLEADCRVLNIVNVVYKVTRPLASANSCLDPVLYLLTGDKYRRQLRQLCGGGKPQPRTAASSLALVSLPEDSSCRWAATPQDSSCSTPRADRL

[8] = biological target: human P2Y6 receptors (Homo sapiens, UniProt Q15077); assay: Effect on human P2Y6 receptors; settings: data not shown
Chain of human P2Y6 receptors (Q15077 whole entry): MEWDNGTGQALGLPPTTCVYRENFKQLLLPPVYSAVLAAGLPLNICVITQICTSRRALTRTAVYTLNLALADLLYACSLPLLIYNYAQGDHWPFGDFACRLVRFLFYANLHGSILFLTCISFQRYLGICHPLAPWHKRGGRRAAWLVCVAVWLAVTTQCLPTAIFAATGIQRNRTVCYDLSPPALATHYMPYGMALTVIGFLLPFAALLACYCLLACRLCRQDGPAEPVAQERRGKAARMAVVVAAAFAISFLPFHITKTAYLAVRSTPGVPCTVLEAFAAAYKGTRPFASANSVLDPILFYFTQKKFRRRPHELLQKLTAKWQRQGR

Chain of human platelet P2Y1 receptors (P47900 whole entry): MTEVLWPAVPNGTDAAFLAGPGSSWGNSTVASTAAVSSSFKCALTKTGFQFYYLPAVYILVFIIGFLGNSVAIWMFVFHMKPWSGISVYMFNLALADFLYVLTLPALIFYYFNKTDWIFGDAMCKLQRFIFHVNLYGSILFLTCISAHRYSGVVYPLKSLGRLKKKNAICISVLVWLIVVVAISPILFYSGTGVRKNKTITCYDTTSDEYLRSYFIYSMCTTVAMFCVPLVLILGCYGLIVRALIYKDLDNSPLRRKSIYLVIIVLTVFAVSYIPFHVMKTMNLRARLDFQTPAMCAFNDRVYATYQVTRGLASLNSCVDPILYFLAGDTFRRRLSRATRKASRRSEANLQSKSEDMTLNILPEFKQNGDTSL

SMILES | P2Y1 inhibition IC50±SEM [1] | IC50 ([2]; read-out: IC50, nM (95% Confidence Interval), no pre-incubation, 3 μM ADP) | IC50 ([2]; read-out: IC50, nM (95% Confidence Interval), pre-incubation with test compound, 5 μM ADP) | IC50 ([2]; read-out: IC50, nM (95% Confidence Interval), pre-incubation with test compound, 20 μM ADP) | P2X1 agonist activity [3] | Pre-incubation time for full pre-incubation effect [4] | Recovery of ability to express the activation markers after dilution [5] | Effect on human P2Y2 receptors [6] | Effect on human P2Y4 receptors [7] | Effect on human P2Y6 receptors [8]
CSCCNc1nc(SCCC(F)(F)F)nc2c1ncn2[C@@H]1O[C@H](COP(=O)(O)OP(=O)(O)C(Cl)(Cl)P(=O)(O)O)[C@@H](O)[C@H]1O [Cangrelor] | Not inhibitor |  |  |  |  |  |  |  |  | 
CSc1nc(N)c2ncn([C@@H]3O[C@H](COP(=O)([S-])OP(=O)([O-])C(Cl)P(=O)([O-])OP(=O)([S-])OC[C@H]4O[C@@H](n5cnc6c(N)nc(SC)nc65)[C@H](O)[C@@H]4O)[C@@H](O)[C@H]3O)c2n1.[Na+].[Na+].[Na+].[Na+] (mixture of isomers) [Compound 5, P^1,P^4-di-(2-methylthio-5′-adenosine) P^1,P^4-dithio-P^2,P^3-chloromethylenetetraphosphate] |  | 36.1 nM | 11.6 nM | 27.6 nM | practically devoid of agonist activity; also recorded: did not have an effect | ≤ 15 min | 80–90% | did not have an effect | did not have an effect | did not have an effect
